Assay results from ChEMBL document CHEMBL4190279 (Eur J Med Chem, 2017).
Active and inactive are the calls of the source. No cut-off for these calls is given here.

Columns and labels:
T47D [1] = assay: cells; details: Homo sapiens, 48 h
Description: Antiproliferative activity against human T47D cells after 48 hrs by SRB assay

HBL-100 [2] = assay: cells; details: Homo sapiens, HBL-100, 48 h
Description: Antiproliferative activity against human HBL100 cells after 48 hrs by SRB assay

[3] = GPx-like activity of the compound assessed as half life for H2O2 reduction by measuring oxidation of PhSH to (PhS)2 at 50 uM measured for 180 secs by spectrophotometric analysis relative to control; format: functional
A549 [4] = assay: Cell cycle arrest in human A549 cells assessed as accumulation at G1-phase at 0.2 uM after 24 hrs by propidium iodide staining based flow cytometry; format: functional
[5] = GPx-like activity of the compound assessed as velocity for H2O2 reduction by measuring oxidation of PhSH to (PhS)2 at 50 uM measured for 180 secs by spectrophotometric analysis; format: functional
SW1573 [6] = assay: Potency index, ratio of 5-FU GI50 to compound GI50 for human SW1573 cells; format: functional
in vitro = details: human, hTERT-BJ cells
Description: Antiproliferative activity against human hTERT-BJ cells after 48 hrs by SRB assay

WiDr [7] = assay: Potency index, ratio of cisplatin GI50 to compound GI50 for human WiDr cells; format: functional
HBL-100 [8] = assay: Potency index, ratio of cisplatin GI50 to compound GI50 for human HBL100 cells; format: functional
[9] = Selectivity index, ratio of Ki for equine serum BuChE assessed as enzyme-substrate-inhibitor complex to Ki for electric eel AChE assessed as enzyme-substrate-inhibitor complex
SW1573 [10] = assay: Cell cycle arrest in human SW1573 cells assessed as accumulation at subG1-phase at 1 uM after 24 hrs by propidium iodide staining based flow cytometry; format: functional
HeLa [11] = assay: cells; details: Homo sapiens, 48 h
Description: Antiproliferative activity against human HeLa cells after 48 hrs by SRB assay

HeLa [12] = assay: Cell cycle arrest in human HeLa cells assessed as accumulation at G1-phase at 0.2 uM after 24 hrs by propidium iodide staining based flow cytometry; format: functional
T47D [13] = assay: Cell cycle arrest in human T47D cells assessed as accumulation at G1-phase at 0.2 uM after 24 hrs by propidium iodide staining based flow cytometry; format: functional
Cholinesterase [14] = target: T1, Cholinesterase (Equus caballus, UniProt P81908); assay: Mixed-type inhibition of equine serum BuChE assessed as enzyme-substrate-inhibitor complex using p-nitrophenyl butyrate as substrate by Lineweaver-Burk plot analysis
T1 sequence (P81908 whole entry): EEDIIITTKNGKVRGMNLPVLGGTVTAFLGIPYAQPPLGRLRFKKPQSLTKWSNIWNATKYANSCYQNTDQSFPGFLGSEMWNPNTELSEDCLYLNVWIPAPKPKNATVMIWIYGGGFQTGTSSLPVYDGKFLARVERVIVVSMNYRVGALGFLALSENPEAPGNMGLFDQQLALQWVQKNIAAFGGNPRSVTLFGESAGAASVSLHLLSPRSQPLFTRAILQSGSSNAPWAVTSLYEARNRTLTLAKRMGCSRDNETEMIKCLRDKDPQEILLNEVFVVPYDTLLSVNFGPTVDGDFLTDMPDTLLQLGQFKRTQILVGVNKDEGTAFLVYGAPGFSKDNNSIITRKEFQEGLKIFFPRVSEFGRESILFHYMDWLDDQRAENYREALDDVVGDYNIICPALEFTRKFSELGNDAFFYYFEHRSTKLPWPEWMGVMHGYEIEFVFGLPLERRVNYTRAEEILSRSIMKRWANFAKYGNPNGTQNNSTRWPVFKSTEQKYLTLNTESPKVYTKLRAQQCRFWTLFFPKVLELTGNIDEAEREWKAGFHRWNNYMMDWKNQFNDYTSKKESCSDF

SW1573 [15] = assay: Cell cycle arrest in human SW1573 cells assessed as accumulation at G1-phase at 0.2 uM after 24 hrs by propidium iodide staining based flow cytometry; format: functional
T47D [16] = assay: Potency index, ratio of cisplatin GI50 to compound GI50 for human T47D cells; format: functional
T47D [17] = assay: Potency index, ratio of 5-FU GI50 to compound GI50 for human T47D cells; format: functional
HeLa [18] = assay: Potency index, ratio of cisplatin GI50 to compound GI50 for human HeLa cells; format: functional
[19] = GPx-like activity of the compound assessed as H2O2 reduction by measuring oxidation of PhSH to (PhS)2 at 50 uM measured for 180 secs by spectrophotometric analysis relative to control; format: functional
Acetylcholinesterase [20] = target: T2, Acetylcholinesterase (Electrophorus electricus, UniProt O42275); assay: Non-competitive inhibition of electric eel AChE assessed as enzyme-inhibitor complex using p-nitrophenyl acetate as substrate by Lineweaver-Burk plot analysis
T2 sequence (O42275 whole entry): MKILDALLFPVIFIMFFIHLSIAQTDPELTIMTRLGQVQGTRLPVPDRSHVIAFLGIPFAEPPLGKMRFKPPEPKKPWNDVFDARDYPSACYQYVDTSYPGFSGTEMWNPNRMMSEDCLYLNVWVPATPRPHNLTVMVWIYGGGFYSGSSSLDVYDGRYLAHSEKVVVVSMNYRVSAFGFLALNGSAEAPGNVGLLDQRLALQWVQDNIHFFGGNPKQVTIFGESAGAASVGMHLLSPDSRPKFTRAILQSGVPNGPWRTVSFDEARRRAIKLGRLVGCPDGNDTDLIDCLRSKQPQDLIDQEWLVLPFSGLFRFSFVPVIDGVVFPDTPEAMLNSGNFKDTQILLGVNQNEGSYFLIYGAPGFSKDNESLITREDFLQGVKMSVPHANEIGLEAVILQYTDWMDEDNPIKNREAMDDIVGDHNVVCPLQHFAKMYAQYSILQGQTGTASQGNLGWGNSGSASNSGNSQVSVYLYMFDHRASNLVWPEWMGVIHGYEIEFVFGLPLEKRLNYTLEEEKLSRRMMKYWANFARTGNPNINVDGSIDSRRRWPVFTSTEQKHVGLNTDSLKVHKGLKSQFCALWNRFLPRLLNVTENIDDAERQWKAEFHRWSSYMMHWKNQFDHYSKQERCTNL

A549 [21] = assay: cells; details: Homo sapiens, A549, 48 h
Description: Antiproliferative activity against human A549 cells after 48 hrs by SRB assay

WiDr [22] = assay: Cell cycle arrest in human WiDr cells assessed as accumulation at subG1-phase at 1 uM after 24 hrs by propidium iodide staining based flow cytometry; format: functional
HeLa [23] = assay: Cell cycle arrest in human HeLa cells assessed as accumulation at subG1-phase at 1 uM after 24 hrs by propidium iodide staining based flow cytometry; format: functional
SW1573 [24] = assay: cells; details: Homo sapiens, SW1573, 48 h
Description: Antiproliferative activity against human SW1573 cells after 48 hrs by SRB assay

WiDr [25] = assay: cells; details: Homo sapiens, 48 h
Description: Antiproliferative activity against human WiDr cells after 48 hrs by SRB assay

HBL-100 [26] = assay: Potency index, ratio of 5-FU GI50 to compound GI50 for human HBL100 cells; format: functional
WiDr [27] = assay: Potency index, ratio of 5-FU GI50 to compound GI50 for human WiDr cells; format: functional
HeLa [28] = assay: Potency index, ratio of 5-FU GI50 to compound GI50 for human HeLa cells; format: functional
HBL-100 [29] = assay: Cell cycle arrest in human HBL100 cells assessed as accumulation at subG1-phase at 1 uM after 24 hrs by propidium iodide staining based flow cytometry; format: functional
Acetylcholinesterase [30] = target: T2, Acetylcholinesterase; assay: Non-competitive inhibition of electric eel AChE assessed as enzyme-substrate-inhibitor complex using p-nitrophenyl acetate as substrate by Lineweaver-Burk plot analysis
SW1573 [31] = assay: Potency index, ratio of cisplatin GI50 to compound GI50 for human SW1573 cells; format: functional
T47D [32] = assay: Cell cycle arrest in human T47D cells assessed as accumulation at subG1-phase at 1 uM after 24 hrs by propidium iodide staining based flow cytometry; format: functional
A549 [33] = assay: Potency index, ratio of cisplatin GI50 to compound GI50 for human A549 cells; format: functional
WiDr [34] = assay: Cell cycle arrest in human WiDr cells assessed as accumulation at G1-phase at 0.2 uM after 24 hrs by propidium iodide staining based flow cytometry; format: functional
Cholinesterase [35] = target: T1, Cholinesterase; assay: Mixed-type inhibition of equine serum BuChE assessed as enzyme-inhibitor complex using p-nitrophenyl butyrate as substrate by Lineweaver-Burk plot analysis
A549 [36] = assay: Cell cycle arrest in human A549 cells assessed as accumulation at subG1-phase at 1 uM after 24 hrs by propidium iodide staining based flow cytometry; format: functional
HBL-100 [37] = assay: Cell cycle arrest in human HBL100 cells assessed as accumulation at G1-phase at 0.2 uM after 24 hrs by propidium iodide staining based flow cytometry; format: functional

`c1ccc2c(NCCCCCC[Se][Se]CCCCCCNc3c4c(nc5ccccc35)CCCC4)c3c(nc2c1)CCCC3` showed a GI50 (T47D [1]) of 0.21 µM, a GI50 (HBL-100 [2]) of 0.17 µM and a T1/2 [3] of 1.14 h. For the same molecule, the Activity (A549 [4]) was “Active”, the Activity [5] was 36.5 µM/min and the RatioGI50 (SW1573 [6]) was “<=306”. The GI50 at 48 h (in vitro) was 0.24 µM, the RatioGI50 (WiDr [7]) was “<=162” and the RatioGI50 (HBL-100 [8]) was “<=162”. The Ratio Ki [9] was 2.8, the Activity (SW1573 [10]) was “Active” and the GI50 (HeLa [11]) was 0.16 µM. The Activity (HeLa [12]) was “Active”, the Activity (T47D [13]) was “Active” and the Ki (Cholinesterase [14]) was 0.0733 µM. For the same molecule, the Activity (SW1573 [15]) was “Active”, the RatioGI50 (T47D [16]) was “<=162” and the RatioGI50 (T47D [17]) was “<=306”. The RatioGI50 (HeLa [18]) was “<=162”, the fold change (FC) [19] was 4.7 and the Ki (Acetylcholinesterase [20]) was 0.0263 µM. The GI50 (A549 [21]) was 0.14 µM, the Activity (WiDr [22]) was “Active” and the Activity (HeLa [23]) was “Active”. The GI50 (SW1573 [24]) was 0.13 µM, the GI50 (WiDr [25]) was 0.24 µM and the RatioGI50 (HBL-100 [26]) was “<=306”. For the same molecule, the RatioGI50 (WiDr [27]) was “<=306”, the RatioGI50 (HeLa [28]) was “<=306” and the Activity (HBL-100 [29]) was greater than 50%. The Ki (Acetylcholinesterase [30]) was 0.0263 µM, the RatioGI50 (SW1573 [31]) was “<=162” and the Activity (T47D [32]) was greater than 50%. The RatioGI50 (A549 [33]) was “<=162”, the Activity (WiDr [34]) was “Active” and the Ki (Cholinesterase [35]) was 0.0433 µM. For the same molecule, the Activity (A549 [36]) was “Active” and the Activity (HBL-100 [37]) was “Active”.
